The values that follow come from PMC5333456, “Characterization of HSP90 isoforms in transformed bovine leukocytes infected with Theileria annulata” (Cellular Microbiology, 2016).

What is called Kd is a measure of binding affinity in units of concentration. Low values mean a tighter complex, high ones a looser complex.

Structures are written as SMILES.

In test [1] the target is T1, TA12105 (T. annulata cytoplasmic HSP90) (Theileria annulata, UniProt Q4UDU8). The experiment in a line: biochemical.
T1 sequence (Q4UDU8 whole entry): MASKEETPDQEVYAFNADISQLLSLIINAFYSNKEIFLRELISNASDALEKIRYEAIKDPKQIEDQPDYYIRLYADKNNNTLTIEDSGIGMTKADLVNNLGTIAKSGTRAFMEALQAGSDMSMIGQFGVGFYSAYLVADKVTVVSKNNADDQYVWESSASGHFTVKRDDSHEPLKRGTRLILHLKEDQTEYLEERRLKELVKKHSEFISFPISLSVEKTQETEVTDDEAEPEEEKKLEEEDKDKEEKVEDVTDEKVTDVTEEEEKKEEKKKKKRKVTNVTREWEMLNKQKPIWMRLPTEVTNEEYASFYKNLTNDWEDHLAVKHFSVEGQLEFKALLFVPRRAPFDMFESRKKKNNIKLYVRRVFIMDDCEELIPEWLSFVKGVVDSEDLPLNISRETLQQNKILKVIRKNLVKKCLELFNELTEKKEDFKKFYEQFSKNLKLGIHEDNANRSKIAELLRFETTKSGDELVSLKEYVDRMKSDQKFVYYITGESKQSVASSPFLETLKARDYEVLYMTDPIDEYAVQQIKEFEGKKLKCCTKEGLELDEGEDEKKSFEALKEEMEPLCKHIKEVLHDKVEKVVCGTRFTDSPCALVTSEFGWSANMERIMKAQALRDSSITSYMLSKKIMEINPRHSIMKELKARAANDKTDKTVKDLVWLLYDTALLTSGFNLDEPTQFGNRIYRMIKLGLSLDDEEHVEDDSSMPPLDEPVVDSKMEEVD
The target of test [2] is T1, TA12105 (T. annulata cytoplasmic HSP90). The experiment in a line: intrinsic tryptophan fluorescence quenching (ATPase Km […]). In kind it is binding.

`C=CCNC1=C2C[C@@H](C)C[C@H](OC)[C@H](O)[C@@H](C)/C=C(\C)[C@H](OC(N)=O)[C@@H](OC)/C=C\C=C(/C)C(=O)NC(=CC1=O)C2=O` [17-AAG] yielded a Kd in test [1] of 7.67 µM. As to `Nc1ncnc2c1ncn2[C@@H]1O[C@H](COP(=O)(O)OP(=O)(O)OP(=O)(O)O)[C@@H](O)[C@H]1O` [ATP], the affinity in test [2], expressed as Kd, was 179 µM.
